In ChEMBL document CHEMBL1201862, “PubChem BioAssay data set” (2004):
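Protocol summary: plate cells (96-well), add compound at 5 concentrations, incubate 48 h, interpolate endpoints linearly. GI50 is the concentration that inhibits growth by half.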 The source made the active and inactive calls. Cut-off read from the data, not from the text of the source: active = GI50 up to about 1.1 µM and inactive = higher.

How the values were obtained:
Test in all cases: growth of human tumour cells (NCI), 48 h
DMS-114 = test system: DMS-114
HOP-18 = test system: HOP-18
DMS-273 = test system: DMS-273
XF498 = test system: XF498
SNB-78 = test system: SNB-78
M19-MEL = test system: M19-MEL
DLD-1 = test system: DLD-1
LXFL 529 = test system: LXFL 529
RXF 631 = test system: RXF 631

SMILES	GI50 (DMS-114)	GI50 (HOP-18)	GI50 (DMS-273)	GI50 (XF498)	GI50 (SNB-78)	GI50 (M19-MEL)	GI50 (DLD-1)	GI50 (LXFL 529)	GI50 (RXF 631)
CCCCOC(=O)CNC(=O)OCCCCC#CC#CCCCCOC(=O)NCC(=O)OCCCC	> 100 µM (inactive)	69.8 µM (inactive)	> 100 µM (inactive)	> 100 µM (inactive)	> 100 µM (inactive)	> 100 µM (inactive)	> 100 µM (inactive)	> 100 µM (inactive)	–
CC1C[C@H](OC(N)=O)C(C)CC1=O (some centres not stated)	> 100 µM (inactive)	> 100 µM (inactive)	> 100 µM (inactive)	> 100 µM (inactive)	> 100 µM (inactive)	> 100 µM (inactive)	> 100 µM (inactive)	> 100 µM (inactive)	–
CCOc1ccccc1NC(=O)CCC(=O)OC	> 61.1 µM (inactive)	> 100 µM (inactive)	> 100 µM (inactive)	> 100 µM (inactive)	> 100 µM (inactive)	> 100 µM (inactive)	> 83 µM (inactive)	> 100 µM (inactive)	–
O=C1[C@@H]2C(c3ccc(Cl)cc3Cl)=NO[C@@H]2C(=O)N1c1ccc(Cc2ccc(N3C(=O)[C@H]4C(c5ccc(Cl)cc5Cl)=NO[C@H]4C3=O)cc2)cc1	39.5 µM (inactive)	> 100 µM (inactive)	> 100 µM (inactive)	> 100 µM (inactive)	46.8 µM (inactive)	> 100 µM (inactive)	> 100 µM (inactive)	15.6 µM (inactive)	–
CN1CCS(=O)(=O)NC(Cc2ccccc2)C(=O)N2CCCC2C1=O (configuration not stated)	> 100 µM (inactive)	> 100 µM (inactive)	> 100 µM (inactive)	> 100 µM (inactive)	> 100 µM (inactive)	> 100 µM (inactive)	> 100 µM (inactive)	> 100 µM (inactive)	–
CCOP(=O)(OCC)OC1C=CC2CCC1C2 (configuration not stated)	87.9 µM (inactive)	> 100 µM (inactive)	18.6 µM (inactive)	> 100 µM (inactive)	> 100 µM (inactive)	–	> 100 µM (inactive)	> 100 µM (inactive)	> 100 µM (inactive)
S=C(Nc1ccccc1)N1N=C2c3ccccc3CC[C@H]2[C@@H]1c1ccccc1	2.29 µM (inactive)	6.21 µM (inactive)	–	> 100 µM (inactive)	0.708 µM (active)	1.83 µM (inactive)	9.42 µM (inactive)	5.52 µM (inactive)	–
COC(=O)C(CCC1(C)OCCO1)C(C)=O (configuration not stated)	> 100 µM (inactive)	> 100 µM (inactive)	> 100 µM (inactive)	> 100 µM (inactive)	> 100 µM (inactive)	> 100 µM (inactive)	> 100 µM (inactive)	> 100 µM (inactive)	> 100 µM (inactive)
O=C(Nc1ccc(Cl)c(Cl)c1)C(=O)C(C(=O)c1ccccc1-c1ccccc1)C1OC(=O)c2ccccc21 (configuration not stated)	12.1 µM (inactive)	–	–	12.8 µM (inactive)	10.4 µM (inactive)	13.1 µM (inactive)	14.8 µM (inactive)	8.81 µM (inactive)	14.3 µM (inactive)
O=C1C=CC(=CC=C2C=CN(CCCCCCCCCCC(=O)NCCCCCCCCCCCC(=O)O)C=C2)C=C1	> 100 µM (inactive)	–	> 100 µM (inactive)	> 100 µM (inactive)	> 100 µM (inactive)	> 100 µM (inactive)	> 100 µM (inactive)	> 100 µM (inactive)	> 100 µM (inactive)
CCCNCCCC(NC(C)=O)C(=O)NCc1ccccc1 (configuration not stated)	> 100 µM (inactive)	–	> 100 µM (inactive)	> 100 µM (inactive)	> 100 µM (inactive)	> 100 µM (inactive)	> 100 µM (inactive)	> 100 µM (inactive)	> 100 µM (inactive)
COc1cc(CCc2ccc(OC(C)=O)cc2)cc(OC)c1OC	55 µM (inactive)	> 100 µM (inactive)	> 100 µM (inactive)	–	> 100 µM (inactive)	> 100 µM (inactive)	> 100 µM (inactive)	> 100 µM (inactive)	–
CCN(CC)c1ccc(C(=O)c2ccccc2C(=O)O)c(O)c1	> 100 µM (inactive)	–	> 100 µM (inactive)	> 100 µM (inactive)	> 100 µM (inactive)	> 100 µM (inactive)	–	> 100 µM (inactive)	–
C#Cc1cc(CN(CC(=O)OC(C)(C)C)CC(=O)OC(C)(C)C)nc(CN(CC(=O)OC(C)(C)C)CC(=O)OC(C)(C)C)c1	3.26 µM (inactive)	–	5.89 µM (inactive)	11.6 µM (inactive)	6.14 µM (inactive)	6.4 µM (inactive)	–	3.46 µM (inactive)	11.9 µM (inactive)
